“And” between values parts separate entries of the source, which are not always exact repeats. Equal values may be shown once.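 Grown in 96-well plates, cells were treated for 48 hours with each compound at five concentrations. Insufficient inhibition: endpoint recorded as highest concentration tested. Abbreviation: GI50, concentration required for 50% inhibition of growth. TGI: concentration producing complete growth inhibition.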 A value given as a limit tells only on which side of the number the result lay.

The results in this text go back to PubChem BioAssay (NCI).

Test systems include HOP-62 NSCLC; HOP-92 NSCLC; M14 melanoma; OVCAR-3 ovarian; RXF 393 renal; SK-MEL-28 melanoma; TK-10 renal; UO-31 renal; CCRF-CEM leukemia.
Holding throughout (assay): growth of human tumour cells (NCI), 48 h

In the case of `CCCCCCCC1(c2ccc(N)cc2)CCC(=O)NC1=O` (centres undefined), the TGI with HOP-62 NSCLC is > 100 µM; in the experiment on HOP-92 NSCLC it was 51.9 µM; in the experiment with M14 melanoma it was > 100 µM; with OVCAR-3 ovarian, 81.1 µM; in the experiment with RXF 393 renal, > 100 µM; with SK-MEL-28 melanoma it was > 100 µM. Besides, the TGI is > 100 µM with TK-10 renal and 74.8 µM with UO-31 renal.

Regarding `Cc1ccc(C)c(N2C(=O)C(=O)C(c3nc4ccccc4o3)C(=O)C2=O)c1`, the TGI in the experiment with CCRF-CEM leukemia, in the experiment with HOP-62 NSCLC, in the experiment with HOP-92 NSCLC, with M14 melanoma, in the experiment with OVCAR-3 ovarian and in the experiment on RXF 393 renal was > 100 µM in each case. The TGI with SK-MEL-28 melanoma, with TK-10 renal and with UO-31 renal was > 100 µM throughout.

For the molecule `Clc1ccc(-c2c3ccc(=[N+]4CCCCC4)cc-3oc3cc(N4CCCCC4)ccc23)cc1`, the GI50 in the experiment with CCRF-CEM leukemia was 0.153 µM; in the experiment on HOP-62 NSCLC, 0.0635 µM; in the experiment with M14 melanoma, 0.0696 µM; in the experiment on OVCAR-3 ovarian, 0.132 µM; in the experiment with RXF 393 renal, 0.129 µM; in the experiment with TK-10 renal, 0.129 µM. In addition, the TGI is 1.97 µM in the experiment with CCRF-CEM leukemia; 0.202 µM in the experiment with HOP-62 NSCLC; 0.209 µM in the experiment on M14 melanoma; 0.274 µM in the experiment with OVCAR-3 ovarian; 0.279 µM in the experiment on RXF 393 renal; 0.345 µM in the experiment with TK-10 renal.

On to `CCC(C)CC(C)CC(C)/C=C(\C)C1=C(C)CC(C)(O)O1` (centres undefined), for which the TGI in the experiment with CCRF-CEM leukemia is > 100 µM; with HOP-92 NSCLC, 79.7 µM; in the experiment on M14 melanoma, > 100 µM; in the experiment with RXF 393 renal it was > 100 µM; in the experiment on SK-MEL-28 melanoma it was > 100 µM; in the experiment with TK-10 renal, > 100 µM. Also, the TGI in the experiment on UO-31 renal is > 100 µM.

On to `Cc1ccc(NC(=O)C(=O)CC(=O)c2c(C)n([O-])c3ccccc3[n+]2=O)cc1C`, for which the TGI in the experiment with CCRF-CEM leukemia, in the experiment on HOP-62 NSCLC, with HOP-92 NSCLC, in the experiment with M14 melanoma, in the experiment on OVCAR-3 ovarian and in the experiment with RXF 393 renal was > 100 µM in each case. The TGI with SK-MEL-28 melanoma, in the experiment on TK-10 renal and in the experiment on UO-31 renal was > 100 µM each time.

Take `Cc1cccc(C(=O)O)c1C(=O)c1cccc2ccccc12`: the TGI in the experiment with CCRF-CEM leukemia, in the experiment with HOP-62 NSCLC, in the experiment on M14 melanoma, in the experiment on OVCAR-3 ovarian, with RXF 393 renal and in the experiment on SK-MEL-28 melanoma was > 100 µM in each case. Moreover, the TGI in the experiment on TK-10 renal and with UO-31 renal was > 100 µM throughout.

On to `O=C(C(=O)n1ncc(Cl)c(Cl)c1=O)n1ncc(Cl)c(Cl)c1=O`, for which the TGI in the experiment on CCRF-CEM leukemia is 29.7 µM; with HOP-62 NSCLC, > 100 µM; with HOP-92 NSCLC it was 49.9 µM; with M14 melanoma it was > 68.7 µM; with OVCAR-3 ovarian it was 68.2 µM; in the experiment on SK-MEL-28 melanoma, 59.3 µM. Besides, the TGI was 70.1 µM with TK-10 renal and > 100 µM in the experiment on UO-31 renal.

As to `COCCOc1cc(C)cc(/C=C(C)/C=C/C2=C(C)CCCC2(C)C)n1`, the TGI with HOP-62 NSCLC, in the experiment on HOP-92 NSCLC, in the experiment on M14 melanoma, in the experiment on OVCAR-3 ovarian, with RXF 393 renal and with SK-MEL-28 melanoma was > 100 µM in each case. Further, the TGI in the experiment on TK-10 renal and with UO-31 renal was > 100 µM each time.

With `CCCCCC(=O)Nc1nc2nc[nH]c2c(=O)[nH]1`, the TGI in the experiment on CCRF-CEM leukemia, in the experiment on HOP-62 NSCLC, with HOP-92 NSCLC, in the experiment with M14 melanoma, in the experiment on OVCAR-3 ovarian and in the experiment with RXF 393 renal was > 100 µM in each case. For the same molecule, the TGI with TK-10 renal and with UO-31 renal was > 100 µM each time.

Turning to `COc1ccc2nc(C(=O)c3ccccc3)c(C)cc2c1`, the TGI was > 100 µM in the experiment with CCRF-CEM leukemia; 37.1 µM in the experiment with HOP-62 NSCLC; 67.1 µM in the experiment with HOP-92 NSCLC; 13.4 µM with M14 melanoma; > 24.3 µM in the experiment on OVCAR-3 ovarian; 17.3 µM in the experiment on RXF 393 renal. In addition, the TGI in the experiment with SK-MEL-28 melanoma was > 62.2 µM; with TK-10 renal, 76.1 µM; in the experiment on UO-31 renal it was > 57.7 µM.

As to `N#Cc1ccccc1NC(=O)C(=O)C1NC(=S)NC1=O` (centres undefined), the TGI in the experiment on CCRF-CEM leukemia, in the experiment with HOP-62 NSCLC, in the experiment on HOP-92 NSCLC, with M14 melanoma, with OVCAR-3 ovarian and with RXF 393 renal was > 100 µM in each case. For the same molecule, the TGI in the experiment on SK-MEL-28 melanoma and in the experiment with TK-10 renal was > 100 µM each time.

For the molecule `CC1OC(=O)C(O)=C1O` (centres undefined), the TGI in the experiment on CCRF-CEM leukemia, in the experiment on HOP-62 NSCLC, in the experiment with HOP-92 NSCLC, in the experiment on M14 melanoma, in the experiment with OVCAR-3 ovarian and in the experiment with RXF 393 renal was > 100 µM in each case. Also, the TGI with TK-10 renal and with UO-31 renal was > 100 µM in each case.

In the case of `CC(C)c1cc(C(C)C)c(S(=O)(=O)N=[N+]=[N-])c(C(C)C)c1`, the TGI in the experiment with CCRF-CEM leukemia, in the experiment with HOP-62 NSCLC, with HOP-92 NSCLC, with M14 melanoma, in the experiment with OVCAR-3 ovarian and in the experiment with RXF 393 renal was > 100 µM throughout. The TGI in the experiment with SK-MEL-28 melanoma, in the experiment with TK-10 renal and in the experiment on UO-31 renal was > 100 µM each time.

On to `COc1ccc(C2=Nc3ccccc3SC(C)C2)cc1OC` (centres undefined), for which the TGI in the experiment with CCRF-CEM leukemia was 87.3 µM; in the experiment on HOP-92 NSCLC, > 100 µM; in the experiment with M14 melanoma it was 33 µM; in the experiment with OVCAR-3 ovarian, 30.8 µM; in the experiment on SK-MEL-28 melanoma, 56.6 µM; with TK-10 renal, 79.4 µM. For the same molecule, in the experiment on UO-31 renal, the TGI was 32.4 µM.

Regarding `Cc1ccc2nc(NC(=O)C(=O)C(C#N)c3ccc(Cl)cc3)sc2c1` (centres undefined), the TGI in the experiment with HOP-62 NSCLC, in the experiment with HOP-92 NSCLC, in the experiment with M14 melanoma, in the experiment on OVCAR-3 ovarian, in the experiment on RXF 393 renal and with SK-MEL-28 melanoma was > 50 µM each time. Further, the TGI in the experiment on TK-10 renal and in the experiment on UO-31 renal was > 50 µM each time.

Consider `COc1ccc2oc3c(OC)c(OC)c(OC)cc3c(=O)c2c1`, for which the TGI with CCRF-CEM leukemia is > 100 µM; in the experiment with HOP-62 NSCLC, > 100 µM; with M14 melanoma it was > 100 µM; with RXF 393 renal it was 84.4 µM; with SK-MEL-28 melanoma, > 100 µM; in the experiment on TK-10 renal it was > 100 µM. Also, in the experiment on UO-31 renal, the TGI was > 100 µM.

Take `Cc1ccc(N=C[N-]c2ccc(C)cc2)cc1.Cc1ccc(N=C[N-]c2ccc(C)cc2)cc1.O=C([O-])C(F)(F)F.O=C([O-])C(F)(F)F.[OH3+].[OH3+].[Rh+2].[Rh+2]`: the GI50 was 23.2 µM with CCRF-CEM leukemia; > 100 µM with HOP-62 NSCLC; 26.2 µM in the experiment on M14 melanoma; 62 µM in the experiment with OVCAR-3 ovarian; 15.1 µM in the experiment with RXF 393 renal; 14.1 µM in the experiment with SK-MEL-28 melanoma. Also, the GI50 with TK-10 renal was 50.2 µM; in the experiment with UO-31 renal, > 100 µM. Moreover, the TGI was 55.8 µM with CCRF-CEM leukemia; > 100 µM with HOP-62 NSCLC; 70.3 µM with M14 melanoma; > 100 µM in the experiment with OVCAR-3 ovarian; 33.1 µM with RXF 393 renal; 39.2 µM in the experiment on SK-MEL-28 melanoma. Moreover, the TGI in the experiment on TK-10 renal and with UO-31 renal was > 100 µM in each case.

Consider `COc1cc2c(c(OC)c1OC)-c1ccc(SC)c(=O)cc1[C@@H](NCc1ccc([N+](=O)[O-])cc1)CC2`, for which the GI50 in the experiment with HOP-62 NSCLC was 0.429 µM. In addition, the TGI in the experiment with HOP-62 NSCLC was > 100 µM; in the experiment on HOP-92 NSCLC, > 100 µM; in the experiment with OVCAR-3 ovarian, 0.00965 µM; in the experiment on RXF 393 renal, 0.00781 µM; with UO-31 renal, > 100 µM.

Turning to `CC1=C(C(=O)Nc2ccccc2)C(c2ccccc2Cl)C(C(=O)Nc2ccccc2)=C(C)N1`, the TGI came out at 62.1 µM with CCRF-CEM leukemia; 38.5 µM in the experiment on HOP-62 NSCLC; 45.2 µM in the experiment with HOP-92 NSCLC; 33.3 µM with M14 melanoma; 40.5 µM in the experiment with OVCAR-3 ovarian; 61.9 µM in the experiment on SK-MEL-28 melanoma. For the same molecule, the TGI in the experiment with TK-10 renal was > 100 µM; in the experiment on UO-31 renal it was 84.4 µM.

Take `O=C(O)CCNS(=O)(=O)c1ccc2ccccc2c1`: the TGI with CCRF-CEM leukemia, with HOP-92 NSCLC, in the experiment with M14 melanoma, with OVCAR-3 ovarian, in the experiment with SK-MEL-28 melanoma and in the experiment on TK-10 renal was > 100 µM in each case. Further, the TGI in the experiment with UO-31 renal is > 100 µM.

Take `CC1=C(SC#N)S(=O)(=O)N(c2ccccc2)C(C)=C1SC#N`: the TGI in the experiment with CCRF-CEM leukemia is 45.8 µM; in the experiment with HOP-92 NSCLC it was 88.7 µM; in the experiment on RXF 393 renal, > 100 µM; in the experiment with SK-MEL-28 melanoma it was > 100 µM; in the experiment with TK-10 renal it was > 100 µM; in the experiment on UO-31 renal it was > 100 µM.

For `Cc1cc(-c2c(F)cc3c4nn([C@H]5CC[C@@H](N(C)C)CC5)c(=O)c-4cn(C4CC4)c3c2F)cc(C)n1`, the GI50 in the experiment on CCRF-CEM leukemia was 0.0033 µM; in the experiment with HOP-62 NSCLC it was 0.018 µM; with HOP-92 NSCLC it was 0.244 µM; in the experiment on M14 melanoma, 0.0539 µM; in the experiment on SK-MEL-28 melanoma, 0.0689 µM; in the experiment on UO-31 renal, 0.275 µM. The TGI is 0.0784 µM and 0.455 µM in the experiment with HOP-62 NSCLC; 2.66 µM in the experiment on OVCAR-3 ovarian; 1.39 µM with RXF 393 renal; 0.368 µM and 3.34 µM in the experiment on SK-MEL-28 melanoma; 0.566 µM and 3.29 µM in the experiment on UO-31 renal.

As to `C1CCCCc2nc3c(nc2CCC1)c1nc2c(nc1c1nc4c(nc31)CCCCCCCC4)CCCCCCCC2`, the TGI with CCRF-CEM leukemia, in the experiment on HOP-62 NSCLC, with HOP-92 NSCLC, with M14 melanoma, with SK-MEL-28 melanoma and in the experiment with TK-10 renal was > 100 µM each time. Besides, the TGI in the experiment with UO-31 renal was > 100 µM.
